Source: publication PMC12818745 (ACS Chemical Neuroscience, 2025)
Where two headings read alike, the source gives them in different places.

Assays:
[1] = molecular target: T1, P-glycoprotein (P-gp) (Homo sapiens, UniProt P08183); assay: Calcein-AM-assay in hMEC/D3 cells; assay type: cell-based; conditions: 1, 10, 50 and 100 μM
T1 construct: endogenous in cells; host or cells: hMEC/D3 cells
Method: To complement this approach and better understand whether these compounds may be substrates of such transporters, we next employed the calcein-AM-assay. This assay is particularly useful for assessing P-glycoprotein (P-gp), a major efflux transporter at the BBB that actively limits drug accumulation in the brain. To investigate potential interactions with P-gp, compounds 10, 11q-s were tested at concentrations of 1 μM, 10 μM, 50 μM and 100 μM, using the calcein-AM-assay in hMEC/D3 cells (Figure ). […] Therefore, these compounds are not expected to be P-gp substrates and may have favorable capacity to cross the BBB via passive diffusion, making them promising candidates for CNS drug development. […].
For all compounds tested, stock solutions were prepared in DMSO. Dilutions were then made with Krebs-Ringer buffer (KRB). […] Fluorescence was measured using a Tecan Infinite 200 Pro plate reader with λ excitation = 485 nm and λ emission = 535 nm. Each test compound was measured with n = 3, control and background were measured with n = 3. All fluorescence values were corrected by subtracting the background fluorescence. The increase in cellular fluorescence caused by a test compound was referred to the fluorescence of the control. […]

[2] = in vitro; conditions: for Prediction (penetration into the CNS): class from PAMPA-BBB P e; for Papp at 2.5 h: pig, PAMPA, pH 7.4
Method: To assess BBB permeability, a parallel artificial membrane permeability assay (PAMPA)-BBB was performed, which predicts passive BBB permeability using a brain lipid porcine membrane.
The prediction of the brain penetration was evaluated using a PAMPA-BBB. […] Next, 100 μL of these stock solutions were added to a solution of 1400 μL of EtOH and 3500 μL of PBS at pH 7.4, to reach 30% of EtOH concentration in the experiment. These solutions were filtered, using Filter PDVF membrane units (diameter 30 mm, pore size 0.45 μm, from Symta). After this, the acceptor 96-well microplate (Multiscreen, catalogue no. MAMCS9610, from Millipore) was filled with 180 μL of PBS/EtOH (70/30). […] After 5 min, 180 μL of each compound solution was added. 1–2 mg of each selected compound was dissolved in 1500 μL of EtOH and 3500 μL of PBS at pH 7.4, filtered, and then added to the donor 96-well plate to determine their ability to cross the brain barrier. After this, the donor plate was carefully put on the acceptor plate to form a “sandwich” and incubated for 2.5 h at 25 °C. During this period, the compounds diffused from the donor plate through the brain lipid membrane into the acceptor plate. Afterward, the donor plate was removed. A 96-well plate UV reader (Thermoscientific, Multiskan spectrum) was used to determine the concentration of compounds and commercial drugs in the acceptor and donor wells. Every sample was analyzed at three to five wavelengths, in three wells, and in two independent runs. […] Ten quality control compounds (previously mentioned) of known BBB permeability were included in each experiment to validate the analysis set.

[3] = molecular target: T2, BChE (Equus caballus, UniProt P81908); assay: Kinetic analysis (Lineweaver–Burk), BChE; assay type: biochemical; conditions: Lineweaver–Burk plots, substrate 50–800 μM
T2 construct: eqBChE (equine serum butyrylcholinesterase); from tissue; host or cells: equine serum
Method: Based on the computational predictions, derivatives 10 (series A) and 11r (series B) were initially expected to interact with both CAS and PAS of AChE and BChE. However, to better understand the actual mechanism of action of these compounds, kinetic studies were performed (Figure ). […].
[…]. The enzymatic reactions and measurements were performed using the same assay conditions, as described above for the inhibition of both enzymes. All experiments were performed in triplicate. Linear regression analysis was performed with GraphPad Prism 8.0.2 (GraphPad Software Inc.).

[4] = molecular target: eeAChE (Electrophorus electricus AChE) (Electrophorus electricus, UniProt O42275); assay: Cholinesterase inhibition assay (modified Ellman's method), eeAChE; assay type: biochemical; conditions: for SI eeAChE: ratio eqBChE IC50/eeAChE IC50
Description: Compound series A and B were initially screened for their cholinesterase activity against eeAChE (Electrophorus electricus AChE) and eqBChE (equine serum butyrylcholinesterase), using an adaptation of the Ellman’s method. […]. […] Similarly, replacing the terminal triple bond in 7l with a nitrile group reduced its activity, while replacing the O-propargyl group with an N,N-dipropargyl group in 10 enhanced the inhibition of both enzymes, particularly BChE (Table ). The installation of an additional aryl ring in 7o further improved AChE inhibition, slightly increasing selectivity toward this enzyme. […]. […]. […]. The inhibitory activity of the synthesized compounds toward eeAChE and eqBChE was evaluated spectrophotometrically through a 96-well microplate modified Ellman’s method. The solutions of both enzymes were prepared as 0.025 U/mL in phosphate buffer at pH 7, from stock solutions of 5.05 U/mL and 7.50 U/mL, respectively. The stock solutions for the target compounds (0.1 M) were prepared in dimethyl sulfoxide (DMSO). […] The reaction mixture was prepared with 100 μL of the enzyme (eeAChE or eqBChE) and 50 μL of the test compound (or DMSO/water, not exceeding 0.2% of DMSO in the wells; i.e blank samples). After 5 min of the preincubation period at 37 °C, 50 μL of ATChI or BTChI and 50 μL of DTNB were added to each well, thus initiating the enzymatic reaction. The absorbance values were measured at 415 nm, for a total of 7.5 min, at every 2.5 min, using a microplate reader (Synergy multimode reader; BioTek). […]. All experiments were performed in triplicate.

Sequence of eeAChE (Electrophorus electricus AChE) (O42275 24-633): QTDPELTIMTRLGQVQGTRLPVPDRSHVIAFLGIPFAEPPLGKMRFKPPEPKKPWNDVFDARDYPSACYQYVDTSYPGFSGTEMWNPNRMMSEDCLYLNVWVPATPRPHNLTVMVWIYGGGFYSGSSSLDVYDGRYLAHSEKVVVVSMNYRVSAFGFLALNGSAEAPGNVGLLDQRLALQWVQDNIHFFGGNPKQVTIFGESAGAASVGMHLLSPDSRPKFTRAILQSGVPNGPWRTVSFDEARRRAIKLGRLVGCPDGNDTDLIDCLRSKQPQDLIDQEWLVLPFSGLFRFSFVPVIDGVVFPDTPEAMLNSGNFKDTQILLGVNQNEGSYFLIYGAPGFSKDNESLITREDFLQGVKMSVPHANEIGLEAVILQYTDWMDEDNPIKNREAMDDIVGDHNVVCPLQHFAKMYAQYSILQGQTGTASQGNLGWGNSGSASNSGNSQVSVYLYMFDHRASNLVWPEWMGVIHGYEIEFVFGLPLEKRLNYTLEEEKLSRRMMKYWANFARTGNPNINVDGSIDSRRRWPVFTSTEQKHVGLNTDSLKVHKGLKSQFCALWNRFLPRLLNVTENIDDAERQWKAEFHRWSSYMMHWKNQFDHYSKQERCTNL
T2 sequence (P81908 whole entry): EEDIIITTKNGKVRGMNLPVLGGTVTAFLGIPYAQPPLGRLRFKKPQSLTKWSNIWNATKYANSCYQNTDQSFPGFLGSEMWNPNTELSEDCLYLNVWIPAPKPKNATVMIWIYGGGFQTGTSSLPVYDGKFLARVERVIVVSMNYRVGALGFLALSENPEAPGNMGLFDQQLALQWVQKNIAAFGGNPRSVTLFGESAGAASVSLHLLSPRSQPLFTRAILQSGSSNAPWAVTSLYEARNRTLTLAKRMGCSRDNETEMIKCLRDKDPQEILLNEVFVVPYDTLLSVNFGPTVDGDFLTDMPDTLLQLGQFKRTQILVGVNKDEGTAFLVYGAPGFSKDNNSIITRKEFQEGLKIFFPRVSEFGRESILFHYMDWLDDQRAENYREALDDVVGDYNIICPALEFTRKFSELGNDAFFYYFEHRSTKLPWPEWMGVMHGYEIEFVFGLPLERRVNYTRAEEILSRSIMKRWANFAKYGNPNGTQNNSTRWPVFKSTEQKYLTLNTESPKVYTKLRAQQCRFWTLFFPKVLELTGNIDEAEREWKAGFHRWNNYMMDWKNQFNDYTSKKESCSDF
T1 sequence (P08183 whole entry): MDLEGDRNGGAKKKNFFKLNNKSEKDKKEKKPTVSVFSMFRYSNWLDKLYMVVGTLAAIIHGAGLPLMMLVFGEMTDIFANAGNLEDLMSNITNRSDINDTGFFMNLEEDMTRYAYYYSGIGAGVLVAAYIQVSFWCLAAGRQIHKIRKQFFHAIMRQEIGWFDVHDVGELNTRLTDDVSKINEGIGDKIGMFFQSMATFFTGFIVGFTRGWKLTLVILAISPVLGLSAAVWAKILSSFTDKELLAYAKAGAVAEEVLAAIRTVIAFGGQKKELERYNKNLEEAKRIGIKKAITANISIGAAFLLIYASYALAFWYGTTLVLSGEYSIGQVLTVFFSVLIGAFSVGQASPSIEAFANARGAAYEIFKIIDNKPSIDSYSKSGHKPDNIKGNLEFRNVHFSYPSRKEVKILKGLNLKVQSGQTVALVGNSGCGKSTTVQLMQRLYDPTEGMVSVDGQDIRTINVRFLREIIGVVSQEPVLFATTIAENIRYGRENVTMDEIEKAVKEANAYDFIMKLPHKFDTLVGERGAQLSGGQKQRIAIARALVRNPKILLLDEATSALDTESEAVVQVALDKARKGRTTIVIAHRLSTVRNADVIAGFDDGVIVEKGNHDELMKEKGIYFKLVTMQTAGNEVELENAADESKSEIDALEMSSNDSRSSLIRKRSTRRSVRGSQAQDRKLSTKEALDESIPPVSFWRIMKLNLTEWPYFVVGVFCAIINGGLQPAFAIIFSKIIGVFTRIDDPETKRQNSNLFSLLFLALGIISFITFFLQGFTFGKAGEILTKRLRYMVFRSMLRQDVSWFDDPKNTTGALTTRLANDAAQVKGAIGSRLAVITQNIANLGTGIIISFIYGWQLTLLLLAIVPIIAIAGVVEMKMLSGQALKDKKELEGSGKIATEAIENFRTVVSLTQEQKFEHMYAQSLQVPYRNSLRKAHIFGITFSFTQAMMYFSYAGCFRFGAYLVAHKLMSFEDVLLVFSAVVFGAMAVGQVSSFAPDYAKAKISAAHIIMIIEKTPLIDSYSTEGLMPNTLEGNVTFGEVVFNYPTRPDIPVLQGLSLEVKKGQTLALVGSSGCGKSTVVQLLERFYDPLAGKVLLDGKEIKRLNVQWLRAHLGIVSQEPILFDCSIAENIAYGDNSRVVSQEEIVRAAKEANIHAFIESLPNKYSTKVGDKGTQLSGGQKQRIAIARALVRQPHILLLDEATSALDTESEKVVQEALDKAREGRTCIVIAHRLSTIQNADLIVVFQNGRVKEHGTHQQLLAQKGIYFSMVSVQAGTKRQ

Row | SMILES | Interaction with P-gp (intracellular calcein fluorescence) [1] | Prediction (penetration into the CNS) [2] | Papp at 2.5 h [2] [×10⁻⁶ cm/s] | Type of inhibition, BChE [3] | IC50 ([4]; mean ± SEM, n = 3, n.a = nonactive, IC50 determined only if inhibition higher than 50% at 20 μM) [µM] | SI eeAChE [4] | IC50 [4] [µM]
1 | C#CCN(CC#C)c1ccccc1/C=C/c1cc(=O)c2ccccc2o1 [Compound 10, (E)-2-{2-[Di(prop-2-yn-1-yl)amino]styryl}-4H-chromen-4-one] | clear inhibitory effect on P-gp activity | CNS+ (High BBB permeation predicted (CNS+) P e > 3.93) | 11.6 ± 3.39 | reversible competitive inhibition | 8.7 ± 0.5 | 0.68 | 
2 | COc1ccc2c(=O)c3cc4c(cc3oc2c1)-c1cc(Cl)ccc1OC4 [Compound 11r, 2-Chloro-11-methoxy-6H,8H-chromeno[3,4-b]xanthen-8-one] | unlikely to be actively effluxed from the brain | CNS+ (High BBB permeation predicted (CNS+) P e > 3.93) | 7.12 ± 0.89 | reversible competitive inhibition |  | 3.00 | 2.1 ± 0.9
